TGI and GI50 data for 17 compounds are collected here from PubChem BioAssay (NCI).

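96-well plates; 48 h exposure; 5 concentrations. Endpoints by linear interpolation between flanking doses. Not reached: highest tested concentration assigned. The concentration for 50% growth inhibition is given as GI50. The concentration for full growth arrest is given as TGI.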

Assay in all cases: NCI tumour cell line growth inhibition, 48 h
Assay [1] concerns HCT-116 colon.
Assay [2] has as its system HCT-15 colon.
The test system of assay [3] is IGROV1 ovarian.
The test system of assay [4] is OVCAR-8 ovarian.
For assay [5], the system named is SW-620 colon.
Assay [6] has as its system UO-31 renal.
For assay [7], the system named is HT29 colon.

As to `CC(=O)N/N=C1\CC(C)(C)C2CCC1C2` (configuration not stated), the TGI in assay [1], in assay [2], in assay [3], in assay [4], in assay [5] and in assay [6] was over 100 µM each time.

In the case of `COc1ccc(NC(=O)CC2SC(=Nc3ccccc3C)NC2=O)c([N+](=O)[O-])c1` (configuration not stated), the TGI in assay [1], in assay [2], in assay [7], in assay [3], in assay [4] and in assay [5] was over 100 µM in each case. In assay [6], the TGI was over 100 µM.

Take `CC1/C=C/[C@@]2(C)CCC(C(C)(C)O)C2C(O)C[C@](C)(O)/C=C/C1` (some centres not stated): the TGI in assay [1], in assay [2], in assay [7], in assay [3], in assay [4] and in assay [5] was over 100 µM each time. This compound also came in with a TGI in assay [6] of over 100 µM.

Take `O=c1/c(=C/c2ccccc2[N+](=O)[O-])sc2nc3ccccc3n12`: the TGI in assay [1] was over 46.4 µM; in assay [2], 31.6 µM; in assay [7], over 46.4 µM; in assay [3] it was over 46.4 µM; in assay [4], over 46.4 µM; in assay [5], 55.6 µM. Moreover, in assay [6], the TGI was over 46.4 µM.

For `Cc1ccc(NC(=O)CCc2nc(N)nc(N)c2-c2ccccc2)cc1C`, the TGI in assay [1], in assay [2], in assay [7], in assay [3], in assay [4] and in assay [5] was over 100 µM each time. This compound also yielded a TGI in assay [6] of over 100 µM.

For `CC1=Nc2c(ccc3c2C(=O)c2ccccc2C3=O)NC(c2cccc3c2CCC3)C1` (configuration not stated), the TGI in assay [1], in assay [2], in assay [7], in assay [3], in assay [4] and in assay [5] was over 100 µM throughout. This compound returned a TGI in assay [6] of over 100 µM.

Turning to `COc1ccc(OC)c(NC(=O)CCC/C(CC(=O)c2ccc(O)c(OC)c2)=N\Nc2nnc(C)n2N)c1`, the TGI in assay [2], in assay [7], in assay [3], in assay [4], in assay [5] and in assay [6] was over 100 µM throughout.

As for `Cc1nn[n-]n1.N.N.N.N.N.[Cl-].[Co+3]`, the GI50 in assay [1], in assay [2], in assay [7], in assay [3], in assay [4] and in assay [5] was over 100 µM each time. Also, the GI50 in assay [6] is over 100 µM. In addition, the TGI in assay [1], in assay [2], in assay [7], in assay [3], in assay [4] and in assay [5] was over 100 µM in each case. This compound gave a TGI in assay [6] of over 100 µM.

Regarding `CCC1CC2C(=O)N(c3ccccc3)C(=O)C2c2[nH]c3ccccc3c21` (configuration not stated), the TGI in assay [2] was over 100 µM; in assay [7], over 100 µM; in assay [3], 30.6 µM; in assay [4], 35.2 µM; in assay [5], over 100 µM; in assay [6], over 100 µM.

As for `COC12CCC(=O)C=C1c1ccccc1N2C(C)=O` (configuration not stated), the TGI in assay [1], in assay [2], in assay [7], in assay [3], in assay [4] and in assay [5] was over 100 µM in each case. In addition, the TGI in assay [6] is over 100 µM.

`CCCNC(=O)C1C(=O)C(=O)N(CCC)C1=O` (configuration not stated): the TGI in assay [1], in assay [2], in assay [7], in assay [3], in assay [4] and in assay [5] was over 100 µM in each case. The compound also showed a TGI in assay [6] of over 100 µM.

On to `C=C(CC(NC(=O)c1ccc(C(CC)Cc2cnc3nc(N)nc(N)c3n2)cc1)C(=O)O)C(=O)O` (configuration not stated), for which the TGI in assay [1], in assay [2], in assay [7], in assay [3], in assay [4] and in assay [6] was over 100 µM in each case. Besides, the GI50 in assay [6] was 0.0271 µM.

For `O=C(CCC(=O)Nc1ccc(Cl)c(Cl)c1)CC(=O)c1ccc(Br)cc1`, the TGI in assay [1], in assay [2], in assay [7], in assay [3], in assay [4] and in assay [5] was over 100 µM in each case. In assay [6], this compound registered a TGI of over 100 µM.

As for `CCOC(=O)C1=C(Nc2ccc(Cl)cc2Cl)OCC1=O`, the TGI in assay [1], in assay [2], in assay [7], in assay [3], in assay [4] and in assay [5] was over 100 µM throughout. Moreover, the TGI in assay [6] was over 100 µM.

On to `CC1=CC(=O)CC2(C)CC[C@@H]3C[C@]12OC3(C)C` (some centres not stated), for which the TGI in assay [1], in assay [2], in assay [7], in assay [3], in assay [4] and in assay [5] was over 100 µM each time. In addition, the TGI in assay [6] is over 100 µM.

For the compound `COc1ccc(NC(=O)/C(=C/c2ccccc2)C(C)=O)cc1`, the TGI in assay [2] was 40.8 µM; in assay [7] it was 28.5 µM; in assay [3], 38.6 µM; in assay [4], 51.5 µM; in assay [5] it was 35.1 µM; in assay [6], 29 µM.

`Cc1ccccc1NC(=O)c1cc(-c2ccc([N+](=O)[O-])cc2)nc(=S)[nH]1`: the TGI in assay [1], in assay [2], in assay [7], in assay [3], in assay [4] and in assay [5] was over 100 µM each time. This compound registered a TGI in assay [6] of over 100 µM.
